Here are results for two molecules from patent US12503485B2, “Human aminosterol ENT-03 compounds, related compositions comprising the same, and methods of using the same” (Enterin, Inc., priority 2019, dated 2025).

Each structure is given as a SMILES string. Values joined by “and” are separate entries in the source; they are usually repeats but may differ in a detail not shown here. Identical values can stand only once. Like-named read-outs stand apart in the source and are kept apart here.

The target of data set [1] is T1, PTPN12/PTP-PEST (Homo sapiens, UniProt Q05209).
T1 construct: purchased Recation Biology Inc
T1 sequence (Q05209 whole entry): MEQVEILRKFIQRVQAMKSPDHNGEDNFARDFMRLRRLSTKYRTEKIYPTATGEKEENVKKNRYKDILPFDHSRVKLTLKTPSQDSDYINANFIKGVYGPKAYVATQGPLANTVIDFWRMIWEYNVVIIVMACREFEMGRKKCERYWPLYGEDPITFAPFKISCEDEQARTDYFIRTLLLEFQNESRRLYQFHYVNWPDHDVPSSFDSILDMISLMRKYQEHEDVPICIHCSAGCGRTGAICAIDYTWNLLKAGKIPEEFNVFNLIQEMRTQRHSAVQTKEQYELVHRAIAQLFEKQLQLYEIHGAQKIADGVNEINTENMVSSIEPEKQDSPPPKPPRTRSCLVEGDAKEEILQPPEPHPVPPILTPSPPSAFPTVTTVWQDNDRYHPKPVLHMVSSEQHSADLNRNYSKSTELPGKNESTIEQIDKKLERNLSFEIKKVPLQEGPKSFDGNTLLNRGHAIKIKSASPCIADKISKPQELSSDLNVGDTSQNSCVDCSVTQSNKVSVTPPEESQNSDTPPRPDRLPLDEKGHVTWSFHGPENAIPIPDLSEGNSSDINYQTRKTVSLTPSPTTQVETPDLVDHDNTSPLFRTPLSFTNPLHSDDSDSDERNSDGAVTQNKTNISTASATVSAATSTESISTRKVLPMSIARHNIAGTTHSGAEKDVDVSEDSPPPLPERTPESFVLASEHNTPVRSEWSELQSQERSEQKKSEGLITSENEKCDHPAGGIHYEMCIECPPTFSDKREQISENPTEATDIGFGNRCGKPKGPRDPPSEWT
The data set can be described thus: Phosphatase assay PTPN12/PTP-PEST. It is filed as biochemical.

The target of data set [2] is T2, PTPN11/SHP2-FL (Homo sapiens, UniProt Q06124).
T2 construct: aa 2-597, isoform 1 (canonical)); StrepII-TEV (N); His-tag (C); purchased Recation Biology Inc; host or cells: E. coli
The data set can be described thus: Phosphatase assay PTPN11/SHP2-FL with activating peptide. It is filed as biochemical.

For data set [3], the target named is T3, PTPN7/LC-PTP (Homo sapiens, UniProt P35236).
T3 construct: purchased Recation Biology Inc
T3 sequence (P35236 whole entry): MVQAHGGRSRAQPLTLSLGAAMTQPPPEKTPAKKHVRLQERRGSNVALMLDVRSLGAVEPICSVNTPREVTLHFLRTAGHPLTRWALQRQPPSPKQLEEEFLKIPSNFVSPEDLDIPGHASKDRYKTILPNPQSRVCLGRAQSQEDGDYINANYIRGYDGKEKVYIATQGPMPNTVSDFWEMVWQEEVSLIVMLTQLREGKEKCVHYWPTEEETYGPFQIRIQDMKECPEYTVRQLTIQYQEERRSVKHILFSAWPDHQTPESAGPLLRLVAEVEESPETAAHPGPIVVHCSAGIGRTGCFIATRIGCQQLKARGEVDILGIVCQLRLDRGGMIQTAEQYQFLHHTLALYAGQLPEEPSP
The data set can be described thus: Phosphatase assay PTPN7/LC-PTP. Format: biochemical.

In data set [4] the target is PTPN11/SHP2 (Homo sapiens, UniProt Q06124). The data set can be described thus: Phosphatase assay PTPN11/SHP2. It is filed as biochemical. As to conditions: Table 2C; read-out: Compound IC50 (M) PTPN11/SHP2.
Data set [5] deals with PS19 mice. The data set can be described thus: Morris water maze, PS19 tauopathy mouse model. Format: in vivo. Conditions: 2.5 mg/kg i.p. once per week for 6 weeks, vs vehicle.
In data set [6] the test system is Xenopus leavis tadpole. The data set can be described thus: In vivo activity on Xenopus tadpole in water. Conditions: 10 μg/ml in 500 ml distilled water, about 1 hour. The method, then: To assess the activity of ENT-05 in vivo, the compound was added to 500 ml of distilled water to a concentration of 10 μg/ml. A Xenopus leavis tadpole, premetamorphic, was placed into the solution. […] A second animal was placed in 500 ml of water, containing 10 μg/ml ENT-05, but also 50 mM NaCl. In this case, the animal survived. The animal was then transferred to spring water without either salt or ENT-05 and remained active over the following days.

In data set [7] the test system is transcriptomes of the stomach, jejunum and ileum. Format: in vivo. Conditions: aged mice (78 weeks).
Data set [8] deals with hAPP-J20 mice. The data set can be described thus: Morris water maze, hAPP-J20 Alzheimer's mouse model. Format: in vivo.
A short description of data set [9]: Weight loss in C57bl/6 male mice, once weekly dosing. Format: in vivo.
Data set [10] in a line: Pharmacokinetic study, intravenous administration in male SD rats. Format: in vivo. Conditions: rat plasma, I.V. 5 mg/kg. As for the experimental part:
The objective of this example was to determine the pharmacokinetic profile of ENT-03 (Compound III) via intravenous and oral administration in male SD Rats.
Animal feeding control: Animals were food fasted overnight prior to dosing and fed 4 hours after administration having free access to water.
PK Sample Analyses: Concentrations of ENT-03 (Compound III) in the plasma and dose samples were analyzed using a LC-MS/MS method. WinNonlin (Phoenix™, version 6.1) or other similar software was used for pharmacokinetic calculations. The following pharmacokinetic parameters were calculated, whenever possible from the plasma concentration versus time data.
IV Bolus administration: T1/2, C0, AUClast, AUCinf, MRTinf, Cl, Vss, Number of Points for Regression.

For data set [11], the target named is T4, PP2A Alpha/PP2R1A Complex (Homo sapiens, UniProt P67775).
T4 construct: purchased Recation Biology Inc
T4 sequence (P67775 whole entry): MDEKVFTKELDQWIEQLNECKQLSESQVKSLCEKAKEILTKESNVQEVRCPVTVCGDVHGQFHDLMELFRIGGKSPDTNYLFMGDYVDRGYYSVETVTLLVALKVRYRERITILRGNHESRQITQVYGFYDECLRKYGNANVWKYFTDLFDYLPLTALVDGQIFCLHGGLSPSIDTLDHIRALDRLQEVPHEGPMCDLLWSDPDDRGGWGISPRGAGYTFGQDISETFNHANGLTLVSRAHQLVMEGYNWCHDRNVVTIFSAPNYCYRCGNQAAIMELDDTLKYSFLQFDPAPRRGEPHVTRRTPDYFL
T4 sequence (P30153 whole entry partner): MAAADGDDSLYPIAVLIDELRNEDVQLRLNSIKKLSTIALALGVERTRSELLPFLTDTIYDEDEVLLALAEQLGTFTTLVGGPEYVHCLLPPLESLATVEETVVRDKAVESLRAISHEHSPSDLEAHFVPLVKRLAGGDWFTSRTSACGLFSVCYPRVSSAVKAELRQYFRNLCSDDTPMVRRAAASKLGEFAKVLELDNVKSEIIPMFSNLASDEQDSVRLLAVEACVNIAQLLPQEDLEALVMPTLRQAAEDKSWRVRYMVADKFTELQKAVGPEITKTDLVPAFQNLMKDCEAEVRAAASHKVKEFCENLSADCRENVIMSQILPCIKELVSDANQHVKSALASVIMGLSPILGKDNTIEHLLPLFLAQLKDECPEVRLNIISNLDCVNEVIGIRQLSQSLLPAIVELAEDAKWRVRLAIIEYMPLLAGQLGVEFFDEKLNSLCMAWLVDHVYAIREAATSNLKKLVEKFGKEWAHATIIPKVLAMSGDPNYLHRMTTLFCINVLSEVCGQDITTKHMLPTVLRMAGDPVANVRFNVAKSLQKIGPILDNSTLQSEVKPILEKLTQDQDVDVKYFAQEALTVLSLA
The data set can be described thus: Phosphatase assay PP2A Alpha/PP2R1A Complex. It is filed as biochemical.

Data set [12] in a line: Body weight of mice after i.p. deuterated ENT-03. It is filed as in vivo. The text has this:
The presence of the deuterium on the side chain likely slows the action of the 2-methylacyl-coenzyme A racemase on C-25, the subsequent action of the dehydrogenase that produces the 24,25-trans-unsaturated derivative by removing the deuterium atoms at C24 and C25, and the subsequent hydration and oxidation at the C24 bond catalyzed by the D-bifunctional protein. Instead, the metabolism of ENT-03D3 will begin with the oxidation at C24 by CYP46A1, yielding the following compound: […]

Data set [13] deals with transcriptomes of the stomach, jejunum and ileum. Format: in vivo, mice. As for the experimental part:
Young (20 week) and aged (80 week) C57bl/6 male mice were administered ENT-03 (40 mg/kg) or vehicle (water) by oral gavage daily for 2 weeks. Over this period of time clinical observations were unremarkable as were the gross and microscopic examinations of the GI tract. The transcriptomes of the stomach, jejunum and ileum were analyzed by RNAseq technology. Comparative analyses of the transcripts from untreated animals identified numerous transcripts that differed in abundance between the corresponding tissues from old and young individuals. […] Thus, within these three distinct regions of the mouse GI tract, ageing is associated with changes in the transcriptome.
Statistical analysis of RNA-sequencing data was performed using R programming language. Transcripts with less than one read count per million reads in all samples of each tissue were removed. The raw count data for the samples were then normalised using trimmed mean of M-values normalisation and transformed with voom (Law et al., 2014), resulting in log 2-transformed counts per million with associated precision weights. […] Statistical comparisons were performed using linear modelling, as implemented in the Bioconductor package limma (Ritchie et al., 2015). Significance values (p-values) were adjusted for multiple testing using Benjamini-Hochberg procedure (Benjamini et al., 1995). For each comparison (e.g. group A versus group B), a positive log 2-transformed fold change indicates up-regulation in group A relative to group B.
To investigate the overlap between contrasts, the number of overlapping differentially expressed genes (defined using adjusted p-value <0.05) between all pairwise combinations of the comparisons performed were counted. For each comparison, the Jaccard index, defined as the intersection over the union, measures the similarity between the two contrasts under consideration. The p-value was calculated using a hypergeometric test taking into account the universe size under the assumption that the contrasts and genes are independent.

The mark [14] stands for this setting: 2.5 mg/kg i.p. once per week for 6 weeks, vs vehicle.
The mark [15] stands for this setting: intraperitoneal 3, 5, 10 mg/kg once weekly over 2 weeks.
Where [16] appears, read: intraperitoneal once weekly over 6 weeks.
[17] abbreviates: individual animals Rat 1-3, listed as ENT-03 (Compound III), 5 mg/kg.

Take `CC(C)[C@@H](CC[C@@H](C)[C@H]1CC[C@H]2[C@@H]3[C@H](O)C[C@H]4C[C@@H](NCCCNCCCCNCCCN)CC[C@]4(C)[C@H]3CC[C@]12C)OS(=O)(=O)O` (single isomer, unassigned) [ENT-02, trodusquemine]: the “activity on PTPN12/PTP-PEST, in words” value in [1] is “target”. Further, in data set [2], the “activity against full length PTPN11/SHP2, in words” value is “active”. Also, the “activity on PTPN7/LC-PTP, in words” value in data set [3] is “target”. Besides, the IC50 in data set [4] worked out at 3.75e-07 M.

Regarding `CC(CCCC(C)C1CCC2C3C(O)CC4CC(NCCCNCCCCNCCCN)CCC4(C)C3CCC12C)C(=O)O` (single isomer, unassigned; ent-03) [ENT-03, 3-β-Spermino-7α-hydroxy-5α-cholestanoic acid], in data set [5], the “learning during the training phase” value is “improved” and the “memory on the probe day” value was “improved”. Moreover, the effect on tadpole result in data set [6] was “No similar effect”. The “genes increased upon treatment that decreased in expression with ageing” value in data set [7] amounted to 36 genes. In data set [8] (setting [14]), the “learning during the training phase” value is on record as “improved” and the “memory on the probe day” value is “improved”. The “latency to find the hidden platform during the training phase” value in [8] (2.5 mg/kg/wk i.p. over 6 weeks) is listed as “decreased”. Moreover, in [9] (setting [15]), the “clinical appearance of treated animals” value is reported as “clinically normal” and the “weight loss, in words” value is recorded as “dose dependent weight loss”. In addition, in [9] (setting [16]), the “clinical appearance of treated animals” value is “clinically normal” and the “weight loss, in words” value is “dose dependent weight loss”. In addition, in [10] (Mean of 3 male SD rats), the AUClInf was 986.457 µg·h/mL, the AUClast amounted to 609.005 µg·h/mL, the “AUC—%Extrap—obs” value worked out at 38.2% and the C0 was 86.337 µg/mL. In data set [10] (Mean of 3 male SD rats), the Cl_obs is 5.1 mL/h/kg, the “MRTInf—obs” value was determined as 24.6 h, the T1/2 was determined as 18.2 h and the “Vss—obs” value is given as 0.125 L/kg. In data set [10] (setting [17]), the AUClInf is 922.477 µg·h/mL and 941.13 µg·h/mL and 1095.763 µg·h/mL; the AUClast was 557.542 µg·h/mL and 608.321 µg·h/mL and 661.154 µg·h/mL; the “AUC—%Extrap—obs” value is 39.6% and 35.4% and 39.7%; the C0 was 80.402 µg/mL and 102.409 µg/mL and 76.2 µg/mL. In data set [10] (setting [17]), the Cl_obs was 5.42 mL/h/kg and 5.31 mL/h/kg and 4.57 mL/h/kg; the “MRTInf—obs” value was 25.3 h and 22.9 h and 25.5 h; the T1/2 is 18.6 h (2×) and 17.5 h; the “Vss—obs” value is 0.137 L/kg and 0.122 L/kg and 0.116 L/kg. Further, the “activity at PP2A alpha, in words” value in data set [11] was “inactive”. Also, in [11] (Table 2B, read-out: Compound IC50 (M) PP2A Alpha/PP2R1A Complex), the IC50 is more than 0.0001 M. The “effect on body weight, in words” value in data set [12] is “loss of weight”. In addition, the “number of differentially expressed genes” value in data set [13] (ileum, treated aged mice) stood at 1162 genes. For the same molecule, the “number of differentially expressed genes” value in [13] (ileum, treated young mice) is 80 genes. The “genes changed significantly in response to exposure” value in data set [13] (jejunum and ileum, both young and aged mice) was “no more than 2 genes”. Besides, in data set [13] (jejunum, treated aged mice), the “number of differentially expressed genes” value is given as 382 genes. Besides, the “number of differentially expressed genes” value in [13] (jejunum, treated young mice) is 42 genes. The “Ageing genes complemented by ENT-03 (30 most significant) Stomach” value in [13] (stomach, aged mice, gene named in value) is “shadow of prion protein”. Further, the “genes down-regulated in ageing overlapping with genes up-regulated by treatment” value in data set [13] (stomach, old mice, P<0.0001 hypergeometric test) stood at 37 genes. Further, in data set [13] (stomach, treated aged mice, 40 mg/kg oral daily 2 weeks, p(adj)<0.05), the “number of differentially expressed genes” value was found to be 63 genes. Further, in [13] (stomach, treated young (20 week) mice, 40 mg/kg oral daily 2 weeks, p(adj)<0.05), the “number of differentially expressed genes” value was determined as 13 genes. Also, the “ageing genes further down regulated in the ageing direction by treatment” value in [13] (stomach, young mice) was 12 genes. In addition, the “clinical observations and gross and microscopic examinations of the GI tract” value in [13] (young and aged C57bl/6 male mice, 40 mg/kg oral gavage daily 2 weeks) was “unremarkable”.
